Measurements from article PMC10065276, “Enhanced therapeutic window for antimicrobial Pept-ins by investigating their structure-activity relationship” (PLOS ONE, 2023).
Converted amounts (≈) assume the structure as drawn. Residues, ends and D or L forms follow the SMILES beside them.

System: E. coli BL21
Conditions: BL21, 17 h
Description: The peptide MIC was determined via the broth microdilution assay according to the EUCAST guideline, using 96-well polystyrene flat-bottom microtiter plates (BD Biosciences). Briefly, a single colony was inoculated in 5 mL Mueller-Hinton (MH) medium and incubated, while shaking at 37°C, to the end-exponential growth phase. The bacterial culture was subsequently diluted to 0.005 McFarland (McF) (~1.5x10^6 CFU/mL) with fresh MH medium. Two-fold serial peptide-dilutions were prepared in 50 μL MH medium resulting in a concentration range of 0.75 to 100 μg/mL (at least three wells for each concentration). Afterwards, 50 μL of the freshly diluted bacterial suspension (0.005 McF) was mixed with different peptide concentrations in the 96-well plate, performed in triplicates. The plate was ultimately incubated at 37°C overnight without shaking for 17 hours. The MIC was determined as the lowest peptide concentration without visible bacterial growth.

| Compound | BL21 MIC [µg/mL] | MIC against E. coli BL21 [µg/mL] |
| --- | --- | --- |
| CC(C)C[C@H](NC(=O)CNC(=O)[C@H](CCCNC(=N)N)NC(=O)[C@@H]1CCCN1C(=O)[C@H](CCCNC(=N)N)NC(=O)[C@H](CCCNC(=N)N)NC(=O)[C@@H](NC(=O)[C@H](CC(C)C)NC(=O)[C@H](Cc1ccccc1)NC(=O)[C@H](CC(C)C)NC(=O)CNC(=O)[C@H](CC(C)C)NC(=O)CNC(=O)[C@@H](N)CCCNC(=N)N)C(C)C)C(=O)NCC(=O)N[C@@H](CC(C)C)C(=O)N[C@@H](Cc1ccccc1)C(=O)N[C@@H](CC(C)C)C(=O)N[C@H](C(=O)N[C@@H](CCCNC(=N)N)C(=O)N[C@@H](CCCNC(=N)N)C(=O)O)C(C)C [A5F (P2)] (H-RGLGLFLVRRPRGLGLFLVRR-OH) | 12.50 |  |
| CC(C)C[C@H](NC(=O)CNC(=O)[C@H](CC(C)C)NC(=O)CNC(=O)[C@H](CCCNC(=N)N)NC(=O)[C@@H]1CCCN1C(=O)[C@H](CCCNC(=N)N)NC(=O)[C@H](CCCNC(=N)N)NC(=O)[C@@H](NC(=O)[C@H](CC(C)C)NC(=O)CNC(=O)[C@H](CC(C)C)NC(=O)CNC(=O)[C@H](CC(C)C)NC(=O)CNC(=O)[C@@H](N)CCCNC(=N)N)C(C)C)C(=O)NCC(=O)N[C@@H](CC(C)C)C(=O)N[C@H](C(=O)N[C@@H](CCCNC(=N)N)C(=O)N[C@@H](CCCNC(=N)N)C(=O)O)C(C)C [A5G (P2)] (H-RGLGLGLVRRPRGLGLGLVRR-OH) | 25.00 |  |
| CC[C@H](C)[C@H](NC(=O)[C@H](CC(C)C)NC(=O)CNC(=O)[C@H](CC(C)C)NC(=O)CNC(=O)[C@H](CCCNC(=N)N)NC(=O)[C@@H]1CCCN1C(=O)[C@H](CCCNC(=N)N)NC(=O)[C@H](CCCNC(=N)N)NC(=O)[C@@H](NC(=O)[C@H](CC(C)C)NC(=O)[C@@H](NC(=O)[C@H](CC(C)C)NC(=O)CNC(=O)[C@H](CC(C)C)NC(=O)CNC(=O)[C@@H](N)CCCNC(=N)N)[C@@H](C)CC)C(C)C)C(=O)N[C@@H](CC(C)C)C(=O)N[C@H](C(=O)N[C@@H](CCCNC(=N)N)C(=O)N[C@@H](CCCNC(=N)N)C(=O)O)C(C)C [A5I (P2)] (H-RGLGLILVRRPRGLGLILVRR-OH) | 6.25 |  |
| CC(C)C[C@H](NC(=O)CNC(=O)[C@H](CCCNC(=N)N)NC(=O)[C@@H]1CCCN1C(=O)[C@H](CCCNC(=N)N)NC(=O)[C@H](CCCNC(=N)N)NC(=O)[C@@H](NC(=O)[C@H](CC(C)C)NC(=O)[C@H](CC(C)C)NC(=O)[C@H](CC(C)C)NC(=O)CNC(=O)[C@H](CC(C)C)NC(=O)CNC(=O)[C@@H](N)CCCNC(=N)N)C(C)C)C(=O)NCC(=O)N[C@@H](CC(C)C)C(=O)N[C@@H](CC(C)C)C(=O)N[C@@H](CC(C)C)C(=O)N[C@H](C(=O)N[C@@H](CCCNC(=N)N)C(=O)N[C@@H](CCCNC(=N)N)C(=O)O)C(C)C [A5L (P2)] (H-RGLGLLLVRRPRGLGLLLVRR-OH) | 12.50 |  |
| CSCC[C@H](NC(=O)[C@H](CC(C)C)NC(=O)CNC(=O)[C@H](CC(C)C)NC(=O)CNC(=O)[C@H](CCCNC(=N)N)NC(=O)[C@@H]1CCCN1C(=O)[C@H](CCCNC(=N)N)NC(=O)[C@H](CCCNC(=N)N)NC(=O)[C@@H](NC(=O)[C@H](CC(C)C)NC(=O)[C@H](CCSC)NC(=O)[C@H](CC(C)C)NC(=O)CNC(=O)[C@H](CC(C)C)NC(=O)CNC(=O)[C@@H](N)CCCNC(=N)N)C(C)C)C(=O)N[C@@H](CC(C)C)C(=O)N[C@H](C(=O)N[C@@H](CCCNC(=N)N)C(=O)N[C@@H](CCCNC(=N)N)C(=O)O)C(C)C [A5M (P2)] (H-RGLGLMLVRRPRGLGLMLVRR-OH) | 6.25 |  |
| CC(C)C[C@H](NC(=O)CNC(=O)[C@H](CCCNC(=N)N)NC(=O)[C@@H]1CCCN1C(=O)[C@H](CCCNC(=N)N)NC(=O)[C@H](CCCNC(=N)N)NC(=O)[C@@H](NC(=O)[C@H](CC(C)C)NC(=O)[C@H](Cc1c[nH]c2ccccc12)NC(=O)[C@H](CC(C)C)NC(=O)CNC(=O)[C@H](CC(C)C)NC(=O)CNC(=O)[C@@H](N)CCCNC(=N)N)C(C)C)C(=O)NCC(=O)N[C@@H](CC(C)C)C(=O)N[C@@H](Cc1c[nH]c2ccccc12)C(=O)N[C@@H](CC(C)C)C(=O)N[C@H](C(=O)N[C@@H](CCCNC(=N)N)C(=O)N[C@@H](CCCNC(=N)N)C(=O)O)C(C)C [A5W (P2)] (H-RGLGLWLVRRPRGLGLWLVRR-OH) | 12.50 |  |
| CC(C)C[C@H](NC(=O)CNC(=O)[C@H](CCCNC(=N)N)NC(=O)[C@@H]1CCCN1C(=O)[C@H](CCCNC(=N)N)NC(=O)[C@H](CCCNC(=N)N)NC(=O)[C@@H](NC(=O)[C@H](CC(C)C)NC(=O)[C@H](Cc1ccc(O)cc1)NC(=O)[C@H](CC(C)C)NC(=O)CNC(=O)[C@H](CC(C)C)NC(=O)CNC(=O)[C@@H](N)CCCNC(=N)N)C(C)C)C(=O)NCC(=O)N[C@@H](CC(C)C)C(=O)N[C@@H](Cc1ccc(O)cc1)C(=O)N[C@@H](CC(C)C)C(=O)N[C@H](C(=O)N[C@@H](CCCNC(=N)N)C(=O)N[C@@H](CCCNC(=N)N)C(=O)O)C(C)C [A5Y (P2)] (H-RGLGLYLVRRPRGLGLYLVRR-OH) | 6.25 |  |
| CC(C)C[C@H](NC(=O)CNC(=O)[C@H](CCCNC(=N)N)NC(=O)[C@@H]1CCCN1C(=O)[C@H](CCCNC(=N)N)NC(=O)[C@H](CCCNC(=N)N)NC(=O)[C@@H](NC(=O)CNC(=O)[C@H](C)NC(=O)[C@H](CC(C)C)NC(=O)CNC(=O)[C@H](CC(C)C)NC(=O)CNC(=O)[C@@H](N)CCCNC(=N)N)C(C)C)C(=O)NCC(=O)N[C@@H](CC(C)C)C(=O)N[C@@H](C)C(=O)NCC(=O)N[C@H](C(=O)N[C@@H](CCCNC(=N)N)C(=O)N[C@@H](CCCNC(=N)N)C(=O)O)C(C)C [L6G (P2)] (H-RGLGLAGVRRPRGLGLAGVRR-OH) | 100.00 |  |
| CC(C)C[C@H](NC(=O)CNC(=O)[C@H](CCCNC(=N)N)NC(=O)[C@@H]1CCCN1C(=O)[C@H](CCCNC(=N)N)NC(=O)[C@H](CCCNC(=N)N)NC(=O)[C@H](Cc1c[nH]cn1)NC(=O)[C@H](Cc1c[nH]cn1)NC(=O)[C@H](C)NC(=O)[C@H](CC(C)C)NC(=O)CNC(=O)[C@H](CC(C)C)NC(=O)CNC(=O)[C@@H](N)CCCNC(=N)N)C(=O)NCC(=O)N[C@@H](CC(C)C)C(=O)N[C@@H](C)C(=O)N[C@@H](Cc1c[nH]cn1)C(=O)N[C@@H](Cc1c[nH]cn1)C(=O)N[C@@H](CCCNC(=N)N)C(=O)N[C@@H](CCCNC(=N)N)C(=O)O [P2_zero_tango_3] (H-RGLGLAHHRRPRGLGLAHHRR-OH) | >100.00 |  |
| CC(C)C[C@H](NC(=O)CNC(=O)[C@H](CCCNC(=N)N)NC(=O)[C@@H]1CCCN1C(=O)[C@H](CCCNC(=N)N)NC(=O)[C@H](CCCNC(=N)N)NC(=O)[C@@H]1CCCN1C(=O)[C@H](CC(C)C)NC(=O)[C@H](C)NC(=O)[C@H](CC(C)C)NC(=O)CNC(=O)[C@H](CC(C)C)NC(=O)CNC(=O)[C@@H](N)CCCNC(=N)N)C(=O)NCC(=O)N[C@@H](CC(C)C)C(=O)N[C@@H](C)C(=O)N[C@@H](CC(C)C)C(=O)N1CCC[C@H]1C(=O)N[C@@H](CCCNC(=N)N)C(=O)N[C@@H](CCCNC(=N)N)C(=O)O [P2_zero_tango_4] (H-RGLGLALPRRPRGLGLALPRR-OH) | >100.00 |  |
| CC(C)C[C@H](NC(=O)CNC(=O)[C@H](CCCNC(=N)N)NC(=O)[C@@H]1CCCN1C(=O)[C@H](CCCNC(=N)N)NC(=O)[C@H](CCCNC(=N)N)NC(=O)[C@@H](NC(=O)[C@H](CC(C)C)NC(=O)[C@H](CC(=O)O)NC(=O)[C@H](CC(C)C)NC(=O)CNC(=O)[C@H](CC(C)C)NC(=O)CNC(=O)[C@@H](N)CCCNC(=N)N)C(C)C)C(=O)NCC(=O)N[C@@H](CC(C)C)C(=O)N[C@@H](CC(=O)O)C(=O)N[C@@H](CC(C)C)C(=O)N[C@H](C(=O)N[C@@H](CCCNC(=N)N)C(=O)N[C@@H](CCCNC(=N)N)C(=O)O)C(C)C [P2_zero_tango_5] (H-RGLGLDLVRRPRGLGLDLVRR-OH) | >100.00 |  |
| CC(C)C[C@H](NC(=O)CNC(=O)[C@H](CCCNC(=N)N)NC(=O)[C@H](C)NC(=O)[C@H](C)NC(=O)[C@H](CCCNC(=N)N)NC(=O)[C@@H](NC(=O)[C@H](CC(C)C)NC(=O)[C@H](C)NC(=O)[C@H](CC(C)C)NC(=O)CNC(=O)[C@H](CC(C)C)NC(=O)CNC(=O)[C@@H](N)CCCNC(=N)N)C(C)C)C(=O)NCC(=O)N[C@@H](CC(C)C)C(=O)N[C@@H](C)C(=O)N[C@@H](CC(C)C)C(=O)N[C@H](C(=O)N[C@@H](C)C(=O)N[C@@H](CCCNC(=N)N)C(=O)O)C(C)C [Peptide P2_4R_A] (H-RGLGLALVRAARGLGLALVAR-OH) | 12.50 |  |
| CC(C)C[C@H](NC(=O)CNC(=O)[C@H](CCCNC(=N)N)NC(=O)[C@H](Cc1ccccc1)NC(=O)[C@H](C)NC(=O)[C@H](CCCNC(=N)N)NC(=O)[C@@H](NC(=O)[C@H](CC(C)C)NC(=O)[C@H](C)NC(=O)[C@H](CC(C)C)NC(=O)CNC(=O)[C@H](CC(C)C)NC(=O)CNC(=O)[C@@H](N)CCCNC(=N)N)C(C)C)C(=O)NCC(=O)N[C@@H](CC(C)C)C(=O)N[C@@H](C)C(=O)N[C@@H](CC(C)C)C(=O)N[C@H](C(=O)N[C@@H](C)C(=O)N[C@@H](CCCNC(=N)N)C(=O)O)C(C)C [Peptide P2_4R_F] (H-RGLGLALVRAFRGLGLALVAR-OH) | 12.50 |  |
| CC(C)C[C@H](NC(=O)CNC(=O)[C@H](CCCNC(=N)N)NC(=O)[C@@H](NC(=O)CNC(=O)[C@H](C)NC(=O)[C@H](CCCNC(=N)N)NC(=O)[C@@H](NC(=O)[C@H](CC(C)C)NC(=O)[C@H](C)NC(=O)[C@H](CC(C)C)NC(=O)CNC(=O)[C@H](CC(C)C)NC(=O)CNC(=O)[C@@H](N)CCCNC(=N)N)C(C)C)C(C)C)C(=O)NCC(=O)N[C@@H](CC(C)C)C(=O)N[C@@H](C)C(=O)N[C@@H](CC(C)C)C(=O)N[C@H](C(=O)N[C@@H](C)C(=O)N[C@@H](CCCNC(=N)N)C(=O)O)C(C)C [Peptide P2_4R_GV] (H-RGLGLALVRAGVRGLGLALVAR-OH) | 6.25 | 6.3 (≈ 2.88 µM) |
